Values quoted from earlier work in paper PMC8476002, “Bergamottin a CYP3A inhibitor found in grapefruit juice inhibits prostate cancer cell growth by downregulating androgen receptor signaling and promoting G0/G1 cell cycle block and apoptosis” (PLoS ONE, 2021).

Tests used:
cell growth = details: earlier work of the authors; cited from earlier work
cytoplasmic AR = test system: cytoplasmic AR; set-up: method as in PMID 32316460; details: cited from earlier work

SMILES	cell growth (cell growth)	cytoplasmic AR (cytoplasmic AR)
CC[C@]1(C)C[C@@H](OC(=O)CSc2nnc(N)[nH]2)[C@]2(C)[C@H](C)CC[C@]3(CCC(=O)[C@H]32)[C@@H](C)[C@@H]1O [azamulin]	cell growth is inhibited	–
CC(C)c1nc(CN(C)C(=O)N[C@H](C(=O)N[C@@H](Cc2ccccc2)C[C@H](O)[C@H](Cc2ccccc2)NC(=O)OCc2cncs2)C(C)C)cs1 [ritonavir]	–	increase in cytoplasmic AR
